The subject of assay [1] is SK-BR-3. The assay is described as follows: Cytotoxicity against human SK-BR-3 cells after 24 hrs by MTT assay relative to NS398. The format is functional, cell-based. Particulars: SK-BR-3, 24 h.
Assay [2] has as its target T1, Prostaglandin G/H synthase 2 (Homo sapiens) (UniProt P35354).
T1 sequence (whole entry): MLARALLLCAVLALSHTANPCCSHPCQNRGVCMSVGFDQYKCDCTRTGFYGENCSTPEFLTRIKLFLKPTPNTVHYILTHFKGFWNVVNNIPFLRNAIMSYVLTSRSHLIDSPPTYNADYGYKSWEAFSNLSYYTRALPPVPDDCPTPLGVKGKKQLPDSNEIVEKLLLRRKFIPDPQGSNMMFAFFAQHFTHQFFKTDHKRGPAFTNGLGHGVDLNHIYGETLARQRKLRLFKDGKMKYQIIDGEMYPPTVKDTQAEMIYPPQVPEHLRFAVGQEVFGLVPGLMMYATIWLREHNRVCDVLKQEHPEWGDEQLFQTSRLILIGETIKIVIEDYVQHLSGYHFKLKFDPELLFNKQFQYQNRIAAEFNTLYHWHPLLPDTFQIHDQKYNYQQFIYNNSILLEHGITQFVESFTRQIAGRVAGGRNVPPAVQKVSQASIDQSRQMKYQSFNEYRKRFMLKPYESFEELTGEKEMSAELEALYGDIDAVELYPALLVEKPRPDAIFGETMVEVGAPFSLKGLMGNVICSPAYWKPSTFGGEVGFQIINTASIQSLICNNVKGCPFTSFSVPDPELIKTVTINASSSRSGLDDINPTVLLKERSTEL
The assay can be described thus: Inhibition of COX2.

Each structure is given as a SMILES string. Active and inactive are the calls of the source. The calls are words filed in the database; no cut-off is given here.

For orientation: IC50 means the point on the concentration scale where inhibition reaches its midpoint. A lower IC50 goes with greater potency in that assay. For `CS(=O)(=O)Nc1ccc([N+](=O)[O-])cc1OC1CCCCC1` [NS-398], the IC50 in assay [1] is 720 nM. In other words, the sub-micromolar range. For `CCC(CC)Oc1cc([N+](=O)[O-])ccc1N(C)S(C)(=O)=O`, in assay [1], the half-maximal inhibitory concentration (IC50) worked out at 840 nM. The result in assay [2] was inactive. The molecule `CN(c1ccc([N+](=O)[O-])cc1OC1CCCC1)S(C)(=O)=O` yielded a half-maximal inhibitory concentration (IC50) in assay [1] of 1090 nM. Besides, the outcome in assay [2] was inactive.

On to `CC(C)Oc1cc([N+](=O)[O-])ccc1N(C)S(C)(=O)=O`, for which, in assay [1], the IC50 is 1790 nM. Besides, the result in assay [2] was inactive.

`CN(c1ccc([N+](=O)[O-])cc1OC1CCCCC1)S(C)(=O)=O`: half-maximal inhibition in assay [1] (IC50) required 660 nM. In assay [2], the result was inactive. On the same counts, the results for `CN(c1ccc([N+](=O)[O-])cc1OCCC1CCCCC1)S(C)(=O)=O` are 2540 nM and “inactive”.

In assay [1], `CCCOc1cc([N+](=O)[O-])ccc1N(C)S(C)(=O)=O` came in with an IC50 of 1240 nM. In addition, in assay [2], the result was inactive.

The values are drawn from ChEMBL document CHEMBL1146286, “Synthesis of carbon-11 labeled sulfonanilide analogues as new potential PET agents for imaging of aromatase in breast cancer” (Bioorg Med Chem Lett, 2007).
